Assay results as given in ChEMBL document CHEMBL1132134, “The LMC delta opioid recognition pharmacophore: comparison of SNC80 and oxymorphindole” (Bioorg Med Chem Lett, 1999).

Tests used:
[1] = target: Opioid receptors; mu & delta (Rattus norvegicus) (UniProt P33533+P33535); assay: Selectivity ratio against mu opioid receptor to that of delta opioid receptor; format: protein assay
[2] = target: Delta-type opioid receptor (Rattus norvegicus, UniProt P33533); assay: Binding affinity evaluated by inhibition of binding of [3H]DADLE to delta opioid receptor of rat brain
Sequence of Delta-type opioid receptor (P33533 whole entry): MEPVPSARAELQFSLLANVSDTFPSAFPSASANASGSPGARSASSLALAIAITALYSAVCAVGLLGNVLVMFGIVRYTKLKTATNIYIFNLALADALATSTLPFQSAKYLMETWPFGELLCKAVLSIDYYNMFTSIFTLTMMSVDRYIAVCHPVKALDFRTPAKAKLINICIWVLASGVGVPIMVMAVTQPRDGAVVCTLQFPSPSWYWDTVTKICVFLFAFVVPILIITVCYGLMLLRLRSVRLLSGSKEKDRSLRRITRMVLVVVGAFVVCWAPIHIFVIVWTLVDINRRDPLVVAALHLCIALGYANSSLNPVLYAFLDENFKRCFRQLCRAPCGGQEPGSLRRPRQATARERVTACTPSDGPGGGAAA

Sequence of Opioid receptors; mu & delta (Rattus norvegicus) (P33533 whole entry, looked up): as the sequence (P33533 whole entry) above
Sequence of Opioid receptors; mu & delta (Rattus norvegicus) (P33535 whole entry, looked up): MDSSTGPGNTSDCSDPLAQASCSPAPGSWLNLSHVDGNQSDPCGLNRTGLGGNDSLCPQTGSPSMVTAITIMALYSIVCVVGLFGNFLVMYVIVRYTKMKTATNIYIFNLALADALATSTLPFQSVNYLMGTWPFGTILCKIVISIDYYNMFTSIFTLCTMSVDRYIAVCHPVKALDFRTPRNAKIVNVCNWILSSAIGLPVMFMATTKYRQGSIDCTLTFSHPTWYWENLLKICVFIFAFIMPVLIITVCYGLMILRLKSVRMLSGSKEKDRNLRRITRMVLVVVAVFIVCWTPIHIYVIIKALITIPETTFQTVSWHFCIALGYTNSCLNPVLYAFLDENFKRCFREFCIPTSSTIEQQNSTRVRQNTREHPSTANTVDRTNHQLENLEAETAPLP

SMILES: O=C1/C(=C\c2ccccc2)C[C@@]2(O)[C@H]3Cc4ccc(O)c5c4[C@@]2(CCN3CC2CC2)[C@H]1O5
- Selectivity [1]: 8.6
- Ki [2]: 3.7 nM

SMILES: O=C1/C(=C/c2ccc3ccccc3c2)C[C@@]2(O)C3Cc4ccc(O)c5c4C2(CCN3CC2CC2)C1O5 (stereo not given in full)
- Selectivity [1]: 0.6
- Ki [2]: 39 nM

SMILES: O=C1/C(=C/c2ccccc2)C[C@@]2(O)[C@H]3Cc4ccc(O)c5c4[C@@]2(CCN3CC2CC2)[C@H]1O5 [BNTX]
- Selectivity [1]: 4
- Ki [2]: 6.2 nM

SMILES: O=C1/C(=C/c2c3ccccc3cc3ccccc23)C[C@@]2(O)C3Cc4ccc(O)c5c4C2(CCN3CC2CC2)C1O5 (stereo not given in full)
- Selectivity [1]: 6.4
- Ki [2]: 17 nM

SMILES: O=C1/C(=C\c2c3ccccc3cc3ccccc23)C[C@@]2(O)C3Cc4ccc(O)c5c4C2(CCN3CC2CC2)C1O5 (stereo not given in full)
- Selectivity [1]: 14
- Ki [2]: 2.4 nM

SMILES: O=C1/C(=C/c2cccc3ccccc23)C[C@@]2(O)C3Cc4ccc(O)c5c4C2(CCN3CC2CC2)C1O5 (stereo not given in full)
- Selectivity [1]: 7.5
- Ki [2]: 4.6 nM

SMILES: O=C1/C(=C\c2ccc(-c3ccccc3)cc2)C[C@@]2(O)C3Cc4ccc(O)c5c4C2(CCN3CC2CC2)C1O5 (stereo not given in full)
- Selectivity [1]: 4.2
- Ki [2]: 47 nM

SMILES: O=C1/C(=C\c2cccc3ccccc23)C[C@@]2(O)C3Cc4ccc(O)c5c4C2(CCN3CC2CC2)C1O5 (stereo not given in full)
- Selectivity [1]: 15
- Ki [2]: 0.7 nM

SMILES: O=C1/C(=C\c2ccc3ccccc3c2)C[C@@]2(O)C3Cc4ccc(O)c5c4C2(CCN3CC2CC2)C1O5 (stereo not given in full)
- Selectivity [1]: 3
- Ki [2]: 16 nM

SMILES: O=C1/C(=C/c2ccc(-c3ccccc3)cc2)C[C@@]2(O)C3Cc4ccc(O)c5c4C2(CCN3CC2CC2)C1O5 (stereo not given in full)
- Selectivity [1]: 0.6
- Ki [2]: 75 nM
